Assay results: patent publication US20080031866A1, “METHOD FOR MODULATING THE PHARMACOKINETICS AND METABOLISM OF A THERAPEUTIC AGENT” (priority 2006, published 2008)

Legend:
[1] = Intracolonic dosing with and without β-glucuronidase, catheterized rat; format: in vivo; settings: 10 mg/kg, rats N=6; for AUC / Cmax / concentration at 0 h / concentration at 0.25 h / concentration at 0.5 h / concentration at 1 h / concentration at 2 h / concentration at 3 h / concentration at 4 h / concentration at 5 h / concentration at 6 h: male, Sprague Dawley, rat, plasma; for AUC: read-out: AUC average ± standard deviation 0 to 6 hours; for Cmax: read-out: Cmax average ± standard deviation; for concentration at 0 h / concentration at 0.25 h / concentration at 0.5 h / concentration at 1 h / concentration at 2 h / concentration at 3 h / concentration at 4 h / concentration at 5 h / concentration at 6 h: other: intracolonic
Method: (§1) A catheterized rat model was used in which the agent alone or agent and β-glucuronidase enzyme was administered intraduodenally or intracolonically. The intraduodenal and intracolonic dosing was intended to prevent the potential for loss of enzymatic activity when orally dosing the β-glucuronidase (e.g. by degradation in the stomach). […]
(§2) For the oral gavage dosing, Compound 1 was prepared in neat PEG-400. For the intraduodenal and intracolonic dosing solutions, Compound 1 was added to neat Tween 80, the mixture was sonicated for thirty minutes at 45° C. until Compound 1 was completely dissolved and then deionized (DI) water was added to form a solution consisting of 20% Tween 80 and 80% DI water by weight.
(§3) For the oral enzyme solutions, β-glucuronidase was added to the final formulation at a concentration of 57,600 units/ml.
(§4) For the intraduodenal and intracolonic dosing, male Sprague Dawley rats weighing 300-400 g were purchased from Charles River Labs. All rat experiments were conducted under approved animal protocols. The rats were catheterized at Charles River Labs and had one or more of the following chronic catheters for dosing and sampling: jugular/carotid, duodenal, and colonic. Rats were limited to only one GI catheter and one vascular catheter. For IV dosing, rats were purchased with jugular and carotid catheters for dosing in the jugular catheter and blood sampling through the carotid catheter. For intraduodenal/intracolonic dosing, rats had one of the GI catheters for dosing and a carotid catheter for blood sampling.
(§5) The surgeries were done two weeks prior to start of testing. Rats were fed 4 hours post dose administration. All rats were dosed without anesthesia and sacrificed at the end of the study.
(§6) A quantitative method for determining the amount of (6,7-dimethoxy-2,4-dihydro-indeno[1,2-c]pyrazol-3-yl)-(3-fluoro-phenyl)-amine Compound 1 and its major metabolites, glucuronide A (Cpd 1-GluA) and glucuronide B (Cpd 1-GluB) (see Scheme A) in rat plasma was developed using phenacetin as an internal standard. [drawing 1]
(§7) The two glucuronide conjugates were prepared and purified to permit accurate quantification of the levels of intact parent Compound 1 versus Cpd 1-GluA and Cpd 1-GluB. Each standard curve for Compound 1, Cpd 1-GluA, and Cpd 1-GluB generated from rat plasma included ten concentration levels. […] The quantitative procedure for each sample included: sample preparation, HPLC separation and mass spectrometry detection.
(§8) The rat plasma was prepared using protein precipitation techniques. Reference standards and quality control samples in rat plasma for Compound 1 were transferred to a 96 deep-well plate. The precipitation solution contained 100 ng/ml of internal standard in acetonitrile. 300 μl of precipitation solution were added to 100 μl of each standard, quality control and plasma sample. Samples were vortexed for 10 mins, then centrifuged at 4500 RPM for 10 mins. 10 μl of each sample were injected for LC/MS/MS analysis.
(§9) The HPLC column chosen for the bioanalysis was purchased from Thermo Electron (Hypersil BetaBasic C18, 5 cm×2.1 mm). The eluting solvents were composed of Solvent A: 0.1% formic acid in H2O and Solvent B: 0.1% formic acid in acetonitrile. A step gradient was used and flow rate was 300 μl/min. The total run time was 3.2 mins. Solvent B was increased from 35% at 0 min to 75% at 2.1 mins and decreased back to 35% at 2.2 mins. The retention times for Compound 1, phenacetin, Cpd 1-GluA and Cpd 1-GluB were 1.1 min, 0.9 min, 1.3 min, and 1.6 min, respectively.
(§10) API3000 with a Turbo Ionspray interface from Applied Biosystems was used for the detection of Compound 1, the internal standard and major metabolites. Electrospray ionization was performed in the positive ion mode heated nebulizer with a temperature of 300° C. LC/MS/MS chromatograms were acquired in MRM (multiple reaction mode). […]

[2] = Intraduodenal dosing with and without β-glucuronidase, catheterized rat; format: in vivo; settings: male, Sprague Dawley, rat, plasma, 10 mg/kg, rats N=6; for AUC: read-out: AUC average ± standard deviation 0 to 6 hours; for Cmax: read-out: Cmax average ± standard deviation; for concentration at 0 h / concentration at 0.25 h / concentration at 0.5 h / concentration at 1 h / concentration at 2 h / concentration at 3 h / concentration at 4 h / concentration at 5 h / concentration at 6 h: other: intraduodenal
Method: as §1, §2, §3, §4, §5, §6, §7, §8, §9, §10

[3] = Compound 1 10 mg/kg intracolonic with β-glucuronidase
[4] = Compound 1 10 mg/kg intracolonic without enzyme
[5] = Compound 1 10 mg/kg intraduodenal with β-glucuronidase
[6] = Compound 1 10 mg/kg intraduodenal without enzyme

Structure (SMILES): COc1cc2c(cc1OC)-c1nn(C3OC(C(=O)O)C(O)C(O)C3O)c(Nc3cccc(F)c3)c1C2 (stereo in doubt) [Cpd 1-GluB]
- AUC [1, 3]: 176 ± 123 ng·h/mL
- Cmax [1, 3]: 79.4 ± 47.3 ng/mL
- AUC [1, 4]: 499 ± 137 ng·h/mL
- Cmax [1, 4]: 140 ± 56.9 ng/mL
- concentration at 0 h [1, 3]: 0 ng/mL
- concentration at 0.25 h [1, 3]: 508 ± 342 ng/mL
- concentration at 0.5 h [1, 3]: 503 ± 363 ng/mL
- concentration at 1 h [1, 3]: 676 ± 586 ng/mL
- concentration at 2 h [1, 3]: 275 ± 260 ng/mL
- concentration at 3 h [1, 3]: 271 ± 181 ng/mL
- concentration at 4 h [1, 3]: 194 ± 165 ng/mL
- concentration at 5 h [1, 3]: 146 ± 84.4 ng/mL
- concentration at 6 h [1, 3]: 119 ± 108 ng/mL
- concentration at 0 h [1, 4]: 0 ng/mL
- concentration at 0.25 h [1, 4]: 70.2 ± 29.3 ng/mL
- concentration at 0.5 h [1, 4]: 72.4 ± 28.2 ng/mL
- concentration at 1 h [1, 4]: 51.2 ± 24.9 ng/mL
- concentration at 2 h [1, 4]: 13.5 ± 5.5 ng/mL
- concentration at 3 h [1, 4]: 7.1 ± 5 ng/mL
- concentration at 4 h [1, 4]: 9.6 ± 6.7 ng/mL
- concentration at 5 h [1, 4]: 9.2 ± 4.1 ng/mL
- concentration at 6 h [1, 4]: 10.4 ± 4 ng/mL
- AUC average ± standard deviation 0 to 6 hours [1, 3]: 175.9 ± 123.1 ng·h/mL
- AUC average ± standard deviation 0 to 6 hours [1, 4]: 498.7 ± 137.2 ng·h/mL
- AUC [2, 5]: 1770 ng·h/mL
- Cmax [2, 5]: 755 ± 509 ng/mL
- AUC [2, 6]: 128 ± 55.3 ng·h/mL
- Cmax [2, 6]: 75.7 ± 27.4 ng/mL
- concentration at 0 h [2, 5]: 0 ng/mL
- concentration at 0.25 h [2, 5]: 508 ± 342 ng/mL
- concentration at 0.5 h [2, 5]: 503 ± 363 ng/mL
- concentration at 1 h [2, 5]: 676 ± 586 ng/mL
- concentration at 2 h [2, 5]: 275 ± 260 ng/mL
- concentration at 3 h [2, 5]: 271 ± 181 ng/mL
- concentration at 4 h [2, 5]: 194 ± 165 ng/mL
- concentration at 5 h [2, 5]: 146 ± 84.4 ng/mL
- concentration at 6 h [2, 5]: 119 ± 108 ng/mL
- concentration at 0 h [2, 6]: 0 ng/mL
- concentration at 0.25 h [2, 6]: 70.2 ± 29.3 ng/mL
- concentration at 0.5 h [2, 6]: 72.4 ± 28.2 ng/mL
- concentration at 1 h [2, 6]: 51.2 ± 24.9 ng/mL
- concentration at 2 h [2, 6]: 13.5 ± 5.5 ng/mL
- concentration at 3 h [2, 6]: 7.1 ± 5 ng/mL
- concentration at 4 h [2, 6]: 9.6 ± 6.7 ng/mL
- concentration at 5 h [2, 6]: 9.2 ± 4.1 ng/mL
- concentration at 6 h [2, 6]: 10.4 ± 4 ng/mL
